Data set [1] has as its system Lu99 cells (CDC45L+, HLA-A24+). Nature of the data set: 51Cr-release assay against Lu99 lung cancer cells. It is filed as cell-based, human. The procedure: (§1) To knock down the expression of CDC45L in lung cancer cells, CDC45L small interfering (si) RNAs (human Cdc45 siRNA, sc-35044: a pool of three target-specific 20-25 nt siRNAs; Santa Cruz) were added at a final concentration of 150 nM to 40-60% confluent cells. Lipofectamine™ 2000 (Invitrogen) was used to transfect the siRNAs into cells, according to the manufacturer's instructions. GFP siRNAs were used as an irrelevant control. The treated cells were washed once with PBS, and adherent cells were collected at 72 h after transfection and used as target cells for the ^51Cr-release assay. To investigate the ability of siRNA to suppress CDC45L expression, western blot analysis was performed as described previously (Nakatsura T et al., Biochem Biophys Res Commun 2003; 306:16-25). Cancer cells were washed once with PBS at 48 h after transfection, and adherent cells were collected and lysed to analyze the expression levels of CDC45L for comparison with those of negative control cells. Beta-actin was used as the internal control. Rabbit polyclonal antibody reactive to CDC45L (sc-20685, Santa Cruz Biotechnology) was used as the primary antibody.

Data set [2] in a line: Immunization of BALB/c mice with peptides emulsified in incomplete Freund adjuvant. It is filed as in vivo. The settings on record: long-term observation period, unpublished data.
Data set [3] concerns A549 cells (CDC45L+, HLA-A24-). It is filed as cell-based, human.
Method: (§2) The CTLs were co-cultured with cancer cells or peptide-pulsed C1R-A2402 and T2 cells as target cells (5×10^3/well) at the indicated effector-to-target ratio, and a standard ^51Cr-release assay was performed as described previously (Yokomine K et al., Int J Cancer 2009; 126:2153-63, Monji M et al., Clin Cancer Res 2004; 10:6047-57). The blocking of HLA-class I by anti-human HLA class I mAb, W6/32 (IgG2a, Santa Cruz Biotechnology), or HLA-class II by anti-human HLA-DR mAb (IgG2a, BD Biosciences), was performed as described previously (Komori H et al., Clin Cancer Res 2006; 12:2689-97, Makita M et al., Clin Cancer Res 2002; 8:2626-31).
The test system of data set [4] is C1R-A2402 cells pulsed with CDC45L derived peptides.
Method: The DCs were pulsed with 20 micro-g/mL of the candidate peptides in the presence of 4 micro-g/mL beta 2-microglobulin (Sigma-Aldrich) for 2 h at 37 degrees C. in AIM-V (Invitrogen) supplemented with 2% heat-inactivated autologous plasma. The cells were then irradiated (40 Gy) and incubated with the isolated CD8^+ T cells as described previously (Imai K et al., Clin Cancer Res 2008; 14:6487-95, Harao M et al., Int J Cancer 2008; 123:2616-25). Two additional stimulations with peptide-loaded autologous PHA-blasts were performed on days 7 and 14. The PHA-blasts were generated as described previously (Inoue M et al., Immunol Lett 2009; 126:67-72), and these PHA-blasts (5×10^5) were pulsed with 20 micro-g/mL peptides for 3 h, irradiated (100 Gy) and cultured with the 2×10^6 CD8^+ T cells in the presence of 10 ng/mL human recombinant IL-7 (Wako, Osaka, Japan). After 2 days, the cultures were supplemented with 20 IU/mL human recombinant IL-2 (PeproTec, Inc.).
Six days after the last stimulation, the antigen-specific responses of the induced CTLs were investigated. Two additional weekly stimulations with peptide-loaded autologous PHA-blasts were carried out on day 7 and 14. Autologous CD 14^− CD8^− cells enriched with CD4^+ T cells were cultured with PHA (2 micro-g/mL) and human recombinant IL-2 (100 IU/mL) for 2 days, and cells were washed with PBS and cultured with human recombinant IL-2 (100 IU/mL) for additional three days. These PHA-blasts (5×10^5) were pulsed with 50 micro-g/mL peptides for 2 hours at 37 degrees C. in AIM-V (Invitrogen) supplemented with 2% heat-inactivated autologous plasma. The cells were then irradiated (100 Gy) and incubated with the 2×10^6 CD8^+ T cells. These cultures were set up in 24-well plates using the medium supplemented with 5 ng/mL human recombinant IL-7, IL-2, and IL-15. Six days after the last stimulation, the antigen-specific responses of the induced CTLs were investigated by an IFN-gamma ELISPOT assay, CD107a mobilization assay and ^51Cr release assay as described previously (Komori H et al. Clin Cancer Res 2006; 12: 2689-97) and below.
The frequency of cells producing interferon (IFN)-gamma per 1×10^5 CTLs upon stimulation with Lu99 cells (1×10^4/well) or peptide-pulsed C1R-A2402 and T2 cells (1×10^4/well) was analyzed by an ELISPOT assay (Human IFN-gamma ELISPOT kit, BD Biosciences) as previously described (Komori H et al., Clin Cancer Res 2006; 12:2689-97, Bourgault V I et al., Cancer Res 2004; 64:8761-6). The CTLs were co-cultured with cancer cells or peptide-pulsed C1R-A2402 and T2 cells as target cells (5×10^3/well) at the indicated effector-to-target ratio, and a standard ^51Cr-release assay was performed as described previously (Yokomine K et al., Int J Cancer 2009; 126:2153-63, Monji M et al., Clin Cancer Res 2004; 10:6047-57). The blocking of HLA-class I by anti-human HLA class I mAb, W6/32 (IgG2a, Santa Cruz Biotechnology), or HLA-class II by anti-human HLA-DR mAb (IgG2a, BD Biosciences), was performed as described previously (Komori H et al., Clin Cancer Res 2006; 12:2689-97, Makita M et al., Clin Cancer Res 2002; 8:2626-31).
Data set [5] concerns EBC-1 cells (CDC45L+, HLA-A24+). It is filed as cell-based, human. The procedure: as §1
For data set [6], the system named is Panc1 cells (CDC45L+, HLA-A2+, HLA-A24-). In words: 51Cr-release assay against Panc1 cells. Particulars: not inhibited by control anti-HLA-class II mAb.
Method: as §2
Data set [7] concerns T2 cells pulsed with the peptide. Particulars: CTL lines from HLA-A2 positive healthy donor; not against HIV-A2 peptide-loaded T2 cells.
Method: PBMCs were isolated from HLA-A24 or HLA-A2 positive Japanese healthy donors and lung cancer patients, and the peripheral monocyte-derived dendritic cells (DCs) were generated as described previously (Harao M et al., Int J Cancer 2008; 123:2616-25, Naito K et al., Int J Oncol 2006; 28:1481-9). The DCs were pulsed with 20 micro-g/mL of the candidate peptides in the presence of 4 micro-g/mL beta 2-microglobulin (Sigma-Aldrich) for 2 h at 37 degrees C. in AIM-V (Invitrogen) supplemented with 2% heat-inactivated autologous plasma. The cells were then irradiated (40 Gy) and incubated with the isolated CD8^+ T cells as described previously (Imai K et al., Clin Cancer Res 2008; 14:6487-95, Harao M et al., Int J Cancer 2008; 123:2616-25). Two additional stimulations with peptide-loaded autologous PHA-blasts were performed on days 7 and 14. […]
The frequency of cells producing interferon (IFN)-gamma per 1×10^5 CTLs upon stimulation with Lu99 cells (1×10^4/well) or peptide-pulsed C1R-A2402 and T2 cells (1×10^4/well) was analyzed by an ELISPOT assay (Human IFN-gamma ELISPOT kit, BD Biosciences) as previously described (Komori H et al., Clin Cancer Res 2006; 12:2689-97, Bourgault V I et al., Cancer Res 2004; 64:8761-6). […]

Each structure is given as a SMILES string. Read-outs that look alike come from different tables or passages of the source. Where a SMILES comes first, the peptide text is derived from it.

As to `CC[C@H](C)[C@H](NC(=O)[C@H](CCC(N)=O)NC(=O)[C@@H](NC(=O)[C@H](CC(=O)O)NC(=O)[C@H](CC(N)=O)NC(=O)[C@H](Cc1ccc(O)cc1)NC(=O)[C@@H](N)C(C)C)[C@@H](C)O)C(=O)N[C@@H](CCCCN)C(=O)N[C@@H](CC(C)C)C(=O)O` [CDC45L-A24-9-109-2] (H-VYNDTQIKL-OH), in data set [1], the “cytotoxicity of peptide-induced CTLs against Lu99 cells” value was “exhibited cytotoxicity” and the “cytotoxicity of peptide-induced CTLs against Lu99 cells transfected with CDC45L specific siRNAs” value is given as “not against”. In addition, in data set [2], the “pathological changes, such as lymphocyte infiltration or tissue destruction” value is “did not exhibit pathological changes”; the “signs of autoimmune diseases, such as weight loss, diarrhea and skin abnormalities” value is “no signs of autoimmune diseases”. The “cytotoxicity of peptide-induced CTLs against A549 cells” value in data set [3] was “not against”. In data set [4], the “cytotoxic activity of CTL lines against peptide-pulsed C1R-A2402 cells” value (“cytotoxic activity of CTL lines” for short) is recorded as “exhibited cytotoxic activity”.
Consider `CC(C)C[C@H](NC(=O)[C@H](CCCCN)NC(=O)[C@H](Cc1ccccc1)NC(=O)[C@H](CCCNC(=N)N)NC(=O)[C@H](C)NC(=O)[C@H](C)NC(=O)[C@@H](NC(=O)[C@H](Cc1ccc(O)cc1)NC(=O)[C@@H](N)CO)[C@@H](C)O)C(=O)O` [CDC45L-A24-9-294-3] (H-SYTAARFKL-OH), for which, in data set [2], the “pathological changes, such as lymphocyte infiltration or tissue destruction” value is “did not exhibit pathological changes”; the “signs of autoimmune diseases, such as weight loss, diarrhea and skin abnormalities” value is on record as “no signs of autoimmune diseases”. Moreover, in data set [5], the “cytotoxicity of peptide-induced CTLs against EBC-1 cells” value was “exhibited cytotoxicity”. Besides, the “cytotoxic activity of CTL lines” value in data set [4] was “exhibited cytotoxic activity”.
For `CC(C)C[C@H](NC(=O)[C@H](Cc1ccccc1)NC(=O)[C@@H](N)CCCCN)C(=O)N[C@@H](C)C(=O)N[C@@H](CO)C(=O)N[C@@H](CC(=O)O)C(=O)N[C@H](C(=O)N[C@H](C(=O)N[C@@H](Cc1ccccc1)C(=O)O)C(C)C)C(C)C` [CDC45L-A24-9-370-7] (H-KFLASDVVF-OH), the “cytotoxicity of peptide-induced CTLs against EBC-1 cells” value in data set [5] was “exhibited cytotoxicity”. Besides, the “cytotoxic activity of CTL lines” value in data set [4] is “exhibited cytotoxic activity”.
Consider `CC[C@H](C)[C@H](NC(=O)[C@H](CC(C)C)NC(=O)[C@H](C)NC(=O)[C@H](CC(=O)O)NC(=O)[C@H](CC(C)C)NC(=O)[C@H](Cc1ccccc1)NC(=O)[C@@H](N)CCCCN)C(=O)N[C@@H](CO)C(=O)N[C@@H](CC(C)C)C(=O)O` [CDC45L-A24-9-556-4] (H-KFLDALISL-OH), for which the “cytotoxicity against Panc1 cells in presence of blocking mAb against HLA-class I (W6/32)” value in data set [6] is “significantly inhibited”. The “cytotoxicity of peptide-induced CTLs against Lu99 cells transfected with CDC45L specific siRNAs” value in data set [1] (CDC45L-, HLA-A24+ target cells) was “not against”. For the same compound, the “cytotoxicity of peptide-induced CTLs against Lu99 cells” value in data set [1] (Lu99 cells and Lu99 cells transfected with control GFP siRNAs) was “exhibited cytotoxicity”. Moreover, the “cytotoxicity of CTL lines against peptide-pulsed T2 cells” value in data set [7] is recorded as “exhibited cytotoxicity”. In data set [4], the “cytotoxic activity of CTL lines” value is listed as “exhibited cytotoxic activity” and the “cytotoxicity of CTL lines against C1R-A2402 cells loaded with the peptide” value was “not against”.
`CC[C@H](C)[C@H](NC(=O)[C@H](CC(C)C)NC(=O)[C@H](C)NC(=O)[C@H](CC(=O)O)NC(=O)[C@H](CC(C)C)NC(=O)[C@H](Cc1ccccc1)NC(=O)[C@@H](N)CCCCN)C(=O)N[C@@H](CO)C(=O)N[C@@H](CC(C)C)C(=O)N[C@@H](CC(C)C)C(=O)O` [CDC45L-A24-10-556-12] (H-KFLDALISLL-OH): the “cytotoxic activity of CTL lines” value in data set [4] is “exhibited cytotoxic activity”.

For the origin of these results see patent US8586547B2, “CDC45L peptides and vaccines including the same” (Oncotherapy Science, Inc., priority 2009, dated 2013).
